Assay results from patent publication US20200239587A1, “SENSITIZATION OF TUMORS TO THERAPIES THROUGH ENDOGLIN ANTAGONISM” (Cedars-Sinai Medical Center, priority 2016, published 2020).
“Also recorded” adds a separate entry of the source.

Experiments:
[1] = test system: tissue recombination orthotopic xenografts of primary human CAF and Rv1; assay: Tissue recombination orthotopic xenografts of primary human CAF and Rv1; settings: castrated mice given enzalutamide vs control intact mice
Source text: FIG. 13A) Mice were orthotopically grafted with tissue recombinants of CW22Rv1 and CAF. […] FIG. 13B) H&E staining was followed by immune-localization for phosphorylated-histoneH3 (PH-H3), TUNEL, and chromogranin A (ChromA). Scale bar represents 32 μm. The mitotic (PH-H3) and cell death (TUNEL) indexes were plotted. n>5, error bars are mean+/−SD and *p<0.05, **p<0.01, ***p<0.001, compared to control unless otherwise indicated.
Male beige/SCID mice (Envigo), 6-8 or 10-12 weeks old, were used for subrenal capsule or prostatic orthotopic grafting, respectively, as previously described (Banerjee et al., 2014, Oncogene 33, 4924-4931; Hayward et al., 2001, Cancer Res 61, 8135-8142). In accordance with institutional animal care and use committee approval, 2×10^5 CW22Rv1 cells and 6×10^5 stromal cells were suspended in 20 μL type I collagen to be grafted into the subrenal capsule of mice castrated after seven days and sacrificed 21 days after castration. […] Tumor volume was calculated using the modified ellipsoid formula volume3=π/6×(width)2×length.
Paraffin embedded tissues were sectioned (5 μm thick) were subjected to hematoxylin and eosin (H&E) staining and immunohistochemistry as previously reported (Placencio et al., 2008, Cancer research 68, 4709-4718). […] Anti-phosphorylated histone H3 (06-570, Millipore), anti-CD105 (NCL-CD105, Leica Microsystems), anti-Ki67 (ab16667, Abcam), and anti-chromogranin A (sc-13090, Santa Cruz Biotechnology), anti-SFRP1 (601-401-475S, Rockland Immunochemicals), and anti-survivin (2808, Cell Signaling) antibodies were incubated at 4° C. overnight. Secondary antibody development was performed with Dako Cytomation mouse or rabbit kits and visualized using 3,3′-diaminobenzidine tetrahydrochloride substrate. TUNEL staining was performed per manufacturer's protocol (S7100, Millipore). Slides were scanned with a Leica Biosystems Aperio AT. Up to five fields per tissue were quantitated with Fiji (ImageJ) using a custom written macro. Mitotic and death index were quantitated by taking the total number of positively-stained nuclei divided by the total number of nuclei.

[2] = test system: C42B; assay: MTT proliferation assay; format: cell-based, human; settings: enzalutamide alone, absence of fibroblastic cells; p<0.0001
Experimental: (§1) CW22Rv1, C42B, and PC3 cells from ATCC were expanded as directed. Prostatectomy specimens from Cedars-Sinai Medical Center or the Greater Los Angeles Veterans Affairs were cultured to generate NAF and CAF cells using the same method, as C57BL/6 mouse wild-type prostatic fibroblasts were grown as previously reported (Franco et al., 2011, Cancer research 71, 1272-1281; Kiskowski et al., 2011, Cancer research 68, 4709-4718). TRC105 and M1043 were provided by TRACON Pharmaceuticals, Inc. (San Diego, Calif.). Enzalutamide (Xtandi) was purchased from Medivation (San Francisco, Calif.).
(§2) 3000 cells per 96-well were treated for 72 hours using 5 wells per treatment. MTT reagent (M6494, Life Technologies) was prepared as directed, incubated for one hour at 37° C., and analyzed using manufacturer's recommendations.

[3] = test system: Rv1; assay: MTT proliferation assay; format: cell-based, human; settings: enzalutamide alone, absence of fibroblastic cells; p<0.0001
Experimental: as §1, §2

[4] = test system: PC3 cells; assay: MTT proliferation assay; format: cell-based, human; settings: enzalutamide, absence of TRC105; no androgen receptor expression
Experimental: as §1, §2

[5] = test system: CD105 cell surface expression in human CW22Rv1 epithelia and mouse prostatic fibroblasts; assay: 3D co-culture, CD105 cell surface expression by FACS; format: cell-based; settings: enzalutamide vs vehicle; epithelial and fibroblastic populations
Experimental: After 72 hours, the cells were dissociated and assessed by FACS for CD105 expression as shown.
A modified version of the 3D organotypic co-culture system was performed in a collagen matrix similar to that previously reported (Stark et al., 1999, J Invest Dermatol 112, 681-691). Collagen matrix gels were prepared by mixing five volumes of rat tail collagen I with two volumes of matrigel (NCI), one volume of 10× DMEM medium (GE Healthcare Life Sciences), and one volume of FBS (Atlanta Biologicals), Rv1 and primary mouse prostatic fibroblasts were combined in a 1:3 ratio. Nylon squares were coated with collagen and placed on metal grids in a 6-well plate. Gel plugs (150 μl) were transferred onto the nylon squares and media was added to the level of the nylon mesh. After 72 hours, the cells were dissociated from the matrix with collagenase and dispersed for FACS analysis.
FACS experiments were performed with eBiosciences antibodies: anti-human Stro-1-FITC (340105), anti-human CD90-PE (12-0909-42), anti-human CD105-APC (17-1057-41), anti-mouse CD105-APC (17-1051-82), anti-human CD117-PE-Cy7 (15-1178-41), anti-human Ki67-PECy7 (25-5699-41), and anti-human EpCAM-PE (12-9326-41). All events were acquired on a BD LSRII flow cytometer in the Cedars-Sinai Medical Center FACS core installed with BD FACSDiva software. Files were analyzed using FlowJo software v10.2. […]

[6] = test system: PCa patient-derived xenograft (PDX); assay: PCa patient-derived xenograft (PDX), immune-localization of CD105 and SFRP1; format: in vivo, mice
Source text: See also FIG. 15. […] Scale bar represents 100 μm. […] See also FIG. 16.

[7] = test system: 22Rv1 cells; assay: Total cellular ATP; format: cell-based, human; settings: with or without 4 Gy, 0-168 hours
Experimental: Cells were analyzed for mito-stress test by Seahorse-XF 168 hours following 4 Gy of radiation in the presence of IgG or TRC105. FIG. 26A) Basal respiration, non-mito respiration, proton leak, spare respiratory capacity, FIG. 26B) extracellular acidification rate (ECAR) and FIG. 26C) mitochondrial dependent ATP production were quantitated using Wave 2.3.0 analysis. Data are reported as mean+/−S.D. of a representative experiment (n=5) of 3 independent experiments. FIGS. 26A-26C, the first/left column depicts 0Gy+IgG, the second column depicts 0Gy+TRC105, the third column depicts 4Gy+IgG and the last/right column depicts 4Gy+TRC105. FIG. 26D) 22Rv1 cells treated with IgG, TRC105 or nicotinamide were irradiated (4 Gy). Total cellular ATP was measured 0, 24, 72, 120, and 168 hours post radiation. Within each group, the left column is IgG, middle column is TRC105 and the right column is nicotinamide. Data are reported as mean+/−S.D. of 3 independent experiments. (***p<0.001, ****p<0.0001).

[8] = test system: p53 in 22Rv1 cells; assay: p53 status after irradiation; format: cell-based, human
Experimental: In search for an alternate process mediating TRC105 radiation sensitization the inventors examined changes in cell cycle. The impact of radiation on the cell cycle is well described, as causing a G2 cell cycle arrest that undergoes cell cycle redistribution. […] As SIRT1 has previously been reported to regulate p53 stability by de-acetylating p53, the inventors investigated p53 status with TRC105 treatment. 22Rv1 cells were treated with either TRC105 or 200 μM nicotinamide, an inhibitor of SIRT1 activity, prior to irradiation (4Gy). Cells were then collected at 0, 1, and 7 days post radiation to elucidate early and late p53 response. […] While loss-of-function p53 mutations are rare in prostate cancer, 90% of pancreatic cancers have p53 mutations. We therefore used two p53 mutant pancreatic cancer cell lines: HPAF-II and MIAPACA-2 to identify if TRC105 unresponsiveness to radiation was due to p53 loss of functionality.

[9] = test system: 22Rv1 cells; assay: Cell counts with oligomycin and irradiation; format: cell-based, human; settings: irrespective of dose of oligomycin, 72 hrs; p<0.01
Experimental: 22Rv1 cells were treated with indicated doses of ATPase inhibitor, oligomycin and exposed to 4Gy irradiation. Within each group, the left column is 0 Gy and the right column is 4 Gy. Cell counts were performed 72 hrs. following irradiation. (**p<0.01, ***p<0.001)

[10] = test system: SIRT1 protein expression in 22Rv1; assay: Western blot for SIRT1 after BMP treatment; format: cell-based, human; settings: serum-starved, 50 ng/ml BMP4 for 4 hours
Experimental: FIG. 20A) Western blot for SIRT1 expression measured in 22Rv1 cells following serum starvation and treatment with 50 ng/ml BMP4 for 4 hours. Phosphorylated Smad1/5 and β-actin was measured concurrently. FIG. 20B) SIRT1 mRNA expression was measured in CW22Rv1 under serum free conditions with 50 ng/ml BMP4, IgG in the context of increasing doses of TRC105 (0.05, 0.1, 0.5, 1, 5, or 10 μg/ml). SIRT1 mRNA expression was normalized to GAPDH and to serum treated control. FIG. 20C) Fold Change of SIRT1 mRNA in benign prostate and prostate cancer patients, obtained from R2-Genomics analysis is expressed (n=95). FIG. 20D) Immunohistochemical localization for SIRT1 expression in benign and prostate cancer tissues is indicated by arrows (Human Protein Atlas). The “e” and “s” indicate epithelia and stromal compartments in the tissues, respectively. FIG. 20E) SIRT1 mRNA expression was measured 72 hours following irradiation of 22Rv1 in a dose range of 0-6 Gy. FIG. 20F) SIRT1 mRNA expression was measured in a time course 0-72 hours following 4 Gy irradiation. SIRT1 mRNA expression was normalized to GAPDH and to untreated, 0 Gy. Data are reported as a mean+/−S.D. of 3 independent experiments (***p<0.001, ****p<0.0001).

[11] = test system: Rv1 cells; assay: Neuroendocrine gene panel in Rv1 treated with recombinant SFRP1; format: cell-based, human; settings: 0, 0.01, 0.1, 1 μg/ml SFRP1; p<0.002
Source text: See also FIG. 15. […] Immunohistochemical localization of CD105 and SFRP1 in benign or PCa tissues are found in blood vessels (v), epithelia (e), and stroma (s), n=4. Scale bar represents 100 μm. FIG. 12E) Epithelial proliferation of human CW22Rv1, in 3D co-cultures with mouse prostatic fibroblasts, were co-stained for EpCam and Ki67 for FACS analysis. […] See also FIG. 16. […] Error bars are mean+/−SD and **p<0.01, ****p<0.0001, compared to control unless otherwise indicated.
Total RNA was extracted using the RNeasy kit (Qiagen). 1 μg RNA was used for cDNA synthesis using iSCRIPT cDNA synthesis kit (1708891, Bio-Rad). Quantitative RT-PCR was performed with 5 replicates using the Step One Real-Time PCR system (Applied Biosystems). Gene mRNA expression was normalized to GAPDH. Primer sequences can be found in the Table 1. For RNA-sequencing, Ion Proton AmpliSeq Transcriptome RNA Sequencing was performed achieving an average of 3M reads. We mapped an average of 88% of the reads to the human genome with Torrent Suite version 4.4.2.

[12] = test system: Rv1 cells; assay: Rv1 proliferation with recombinant SFRP1; format: cell-based, human; settings: same doses of SFRP1, 72 hours
Source text: Associations between copy number (CN), gene expression (GE), and methylation (Me) are denoted by lines from one node to another (p<0.01).

CNC(=O)c1ccc(N2C(=S)N(c3ccc(C#N)c(C(F)(F)F)c3)C(=O)C2(C)C)cc1F [enzalutamide, reference compound]
cell turnover by phosphorylated-histone H3 and TUNEL [1]: statistically comparable to control intact mice
tumor volume [1]: statistically comparable to control intact mice; also recorded: did not significantly decrease tumor growth
cell proliferation (MTT) [2]: significantly reduced cell proliferation
cell proliferation (MTT) [3]: significantly reduced cell proliferation; also recorded: sensitive to enzalutamide treatment
viability (MTT) [4]: insensitive
CD105 cell surface expression [5]: three-fold increase
SFRP1 expression in PDX ([6]; enzalutamide treatment): upregulated
CD105 expression in PDX tissues ([6]; following 4 days of enzalutamide administration): elevated in both epithelial and CAF populations

NC(=O)c1cccnc1 [nicotinamide, reference compound]
cellular ATP stores [7]: depleted regardless of radiation treatment
acetylated and total-p53 ([8]; by 7 days post radiation): markedly increased
anti-apoptotic protein Bc1-2 ([8]; prior to 4Gy irradiation): decrease in the anti-apoptotic protein Bc1-2
p21 ([8]; prior to 4Gy irradiation): increase in p21
acetylated p53 ([8]; treatment prior to 4Gy, nicotinamide 200 μM): increase in acetylated p53

CC[C@H]1/C=C/C=C/C[C@@H](C)[C@H](O)[C@@](C)(O)C(=O)[C@@H](C)[C@H](O)[C@@H](C)C(=O)[C@@H](C)[C@H](O)[C@@H](C)/C=C/C(=O)O[C@@H]2[C@H](C)[C@H](CC1)O[C@]1(CC[C@H](C)[C@H](C[C@@H](C)O)O1)[C@H]2C [oligomycin]
cell proliferation by cell counting [9]: significantly reduced cell proliferation

B1: BMP: bone morphogenic protein (BMP4, 50 ng/ml) used to stimulate 22Rv1 cells (protein, UniProt P12644 293-408, looked up)
Bone morphogenetic protein 4: SPKHHSQRARKKNKNCRRHSLYVDFSDVGWNDWIVAPPGYQAFYCHGDCPFPLADHLNSTNHAIVQTLVNSVNSSIPKACCVPTELSAISMLYLDEYDKVVLKNYQEMVVEGCGCR
SIRT1 protein expression [10]: induced SIRT1 protein expression

B2: SFRP1: human recombinant SFRP1 (Secreted Frizzled Related Protein 1) (protein, UniProt Q8N474 32-314, looked up)
Secreted frizzled-related …: SEYDYVSFQSDIGPYQSGRFYTKPPQCVDIPADLRLCHNVGYKKMVLPNLLEHETMAEVKQQASSWVPLLNKNCHAGTQVFLCSLFAPVCLDRPIYPCRWLCEAVRDSCEPVMQFFGFYWPEMLKCDKFPEGDVCIAMTPPNATEASKPQGTTVCPPCDNELKSEAIIEHLCASEFALRMKIKEVKKENGDKKIVPKKKKPLKLGPIKKKDLKKLVLYLKNGADCPCHQLDNLSHHFLIMGRKVKSQYLLTAIHKWDKKNKEFKNFMKKMKNHECPTFQSVFK
expression of panel of 9 PCa NED genes [11]: significant induction of a panel of 9 PCa NED genes in a dose dependent manner
epithelial proliferation [12]: no effect
